The source of these data is US9708336B2, “Metallo-beta-lactamase inhibitors” (priority 2014, dated 2017).

One assay deals with NDM-1 (Klebsiella pneumoniae, UniProt C7C422). The assay can be described thus: biochemical. The note with it: fluorescence assay with CCF2-FA substrate; read-out: NDM-1 IC50. The class given is biochemical.
Another assay addresses IMP-1 (Serratia marcescens, UniProt P52699). The assay can be described thus: biochemical. The format is biochemical. The conditions noted are these: fluorescence assay with CCF2-FA substrate; read-out: IMP-1 IC50.
A further assay addresses VIM-1 (Pseudomonas aeruginosa (strain ATCC 15692 / DSM 22644 / CIP 104116 / JCM 14847 / LMG 12228 / 1C / PRS 101 / PAO1), UniProt A0A0F7KYQ8). The experiment in a line: Enzyme activity: determination of IC50, fluorescence assay with CCF2-FA substrate (VIM-1). The class given is biochemical.
In assay [1] the test system is Escherichia coli expressing NDM-1 (CLB30016). The experiment in a line: Antibiotic potentiation activity: synergistic concentration (MITC95) with imipenem, OD600 growth. The class given is cell-based. The conditions noted are these: CLB30016 (NDM-1), 95% inhibition of bacterial growth. The essentials: (§1)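 Bacteria were grown overnight on agar at 35 °C, diluted 1:100 from saline into 1.1× CAMHB, then given compound with or without imipenem (4 μg/ml in assay, optionally 1 μg/ml). Endpoint: absorbance at 22–24 h.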

Assay [2] deals with Klebsiella pneumoniae expressing VIM-1 (IHMA599644). The description is as above. The format is cell-based. The conditions noted are these: IHMA599644 (VIM-1), 95% inhibition of bacterial growth. The gist of the method: as §1
The subject of assay [3] is Serratia marcescens expressing IMP-1 (CL5741). The assay is described as above. The class given is cell-based. The conditions noted are these: CL5741 (IMP-1), 95% inhibition of bacterial growth. The essentials:
as §1

The mark [4] stands for this setting: fluorescence assay with CCF2-FA substrate, read-out: VIM-1 IC50.
Where [5] appears, read: VIM-1 IC50, fluorescence assay with CCF2-FA substrate.

Read-outs that look alike come from different tables or passages of the source.

NDM-1, sequence (C7C422 whole entry, looked up, species assumed): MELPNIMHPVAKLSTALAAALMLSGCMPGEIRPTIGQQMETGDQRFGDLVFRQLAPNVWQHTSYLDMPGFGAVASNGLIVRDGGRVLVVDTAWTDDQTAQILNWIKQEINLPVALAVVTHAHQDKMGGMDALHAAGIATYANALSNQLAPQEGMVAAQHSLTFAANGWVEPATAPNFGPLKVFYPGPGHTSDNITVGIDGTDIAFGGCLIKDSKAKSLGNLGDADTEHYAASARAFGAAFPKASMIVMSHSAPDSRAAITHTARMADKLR
IMP-1, sequence (P52699 whole entry, looked up): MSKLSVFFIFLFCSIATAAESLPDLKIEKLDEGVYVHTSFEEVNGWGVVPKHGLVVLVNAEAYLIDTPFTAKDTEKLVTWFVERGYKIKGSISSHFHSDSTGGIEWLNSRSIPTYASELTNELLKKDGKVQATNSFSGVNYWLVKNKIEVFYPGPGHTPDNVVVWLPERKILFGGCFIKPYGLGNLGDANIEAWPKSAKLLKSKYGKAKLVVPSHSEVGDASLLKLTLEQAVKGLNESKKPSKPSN

What is called IC50 is the concentration that gives 50% inhibition. Regarding `N=C(N)NC1CCN(c2ccc(C(F)(F)F)c(S(N)(=O)=O)c2-c2nnn[nH]2)CC1` [Example 824, 1-[1-[3-sulfamoyl-2-(1H-tetrazol-5-yl)-4-(trifluoromethyl)phenyl]-4-piperidyl]guanidine], the 50% inhibitory concentration (IC50) on NDM-1 came out at 53.1 nM; at IMP-1 it was 59.2 nM; on VIM-1 (setting [4]) it was 0.702 nM. The “Escherichia coli MITC95” value in assay [1] came to 1.563 µM. The “Klebsiella pneumoniae MITC95” value in assay [2] was determined as 0.7813 µM. Also, in assay [3], the “Serratia marcescens MITC95” value was 0.7813 µM.

In the case of `N=C(N)N1CCC([C@H]2CC[C@H](c3ccc(C(F)(F)F)c(S(N)(=O)=O)c3-c3nnn[nH]3)CC2)CC1` [Example 825, 4-[4-[3-sulfamoyl-2-(1H-tetrazol-5-yl)-4-(trifluoromethyl)phenyl]cyclohexyl] piperidine-1-carboxamidine], the IC50 stood at 0.157 nM on NDM-1, 0.499 nM on IMP-1 and 0.0805 nM at VIM-1 (setting [4]). In addition, the “Escherichia coli MITC95” value in assay [1] was 0.7813 µM. The “Klebsiella pneumoniae MITC95” value in assay [2] is 3.125 µM. The “Serratia marcescens MITC95” value in assay [3] was 1.563 µM.

`N=C(N)N1CCC2(CCC(c3ccc(C(F)(F)F)c(S(N)(=O)=O)c3-c3nnn[nH]3)CC2)CC1` [Example 826, 9-[3-sulfamoyl-2-(1H-tetrazol-5-yl)-4-(trifluoromethyl)phenyl]-3-azaspiro[5.5]undecane-3-carboxamidine]: the IC50 turned out to be 0.491 nM on NDM-1, 1.45 nM on IMP-1 and 1.36 nM at VIM-1 (setting [5]). For the same compound, the “Escherichia coli MITC95” value in assay [1] turned out to be 1.563 µM. For the same compound, in assay [2], the “Klebsiella pneumoniae MITC95” value amounted to 25 µM. The “Serratia marcescens MITC95” value in assay [3] is 3.125 µM.

Turning to `NCCNC1CCC(c2ccc(C(F)(F)F)c(S(N)(=O)=O)c2-c2nnn[nH]2)CC1` (stereo not drawn) [Example 827, 3-[4-(trans-2-aminoethylamino)cyclohexyl]-2-(1H-tetrazol-5-yl)-6-(trifluoromethyl)benzenesulfonamide], the IC50 on NDM-1 was determined as 5.72 nM; at IMP-1, 22.6 nM; at VIM-1 (setting [5]), 2.59 nM. Moreover, the “Escherichia coli MITC95” value in assay [1] amounted to 0.3906 µM. For the same compound, in assay [2], the “Klebsiella pneumoniae MITC95” value is 1.172 µM. Moreover, in assay [3], the “Serratia marcescens MITC95” value worked out at 0.3906 µM.

For the compound `NCCN[C@H]1CC[C@@H](c2ccc(C(F)(F)F)c(S(N)(=O)=O)c2-c2nnn[nH]2)CC1` [Example 828, 3-((1s,4s)-4-((2-aminoethyl)amino)cyclohexyl)-2-(1H-tetrazol-5-yl)-6-(trifluoromethyl)benzenesulfonamide], the IC50 at NDM-1 is 8.29 nM; at IMP-1, 72.9 nM; on VIM-1 (setting [5]), 73.3 nM. The “Escherichia coli MITC95” value in assay [1] stood at 0.7813 µM. In assay [2], the “Klebsiella pneumoniae MITC95” value amounted to 6.25 µM. Further, the “Serratia marcescens MITC95” value in assay [3] came to 1.563 µM.

As for `NCCNC1CCN(c2ccc(C(F)(F)F)c(S(N)(=O)=O)c2-c2nnn[nH]2)CC1` [Example 829, 3-[4-(2-aminoethylamino)-1-piperidyl]-2-(1H-tetrazol-5-yl)-6-(trifluoromethyl)benzenesulfonamide], the IC50 is 59.8 nM on NDM-1, 93.3 nM at IMP-1 and 1.08 nM on VIM-1 (setting [4]). For the same compound, the “Escherichia coli MITC95” value in assay [1] was found to be 0.7813 µM. In assay [2], the “Klebsiella pneumoniae MITC95” value worked out at 0.7813 µM. Besides, the “Serratia marcescens MITC95” value in assay [3] worked out at 0.9766 µM.

With `NC1(CNC2CCC(c3ccc(C(F)(F)F)c(S(N)(=O)=O)c3-c3nnn[nH]3)CC2)CC1` (stereo not drawn) [Example 830, 3-[4-[(1-aminocyclopropyl)methylamino]cyclohexyl]-2-(1H-tetrazol-5-yl)-6-(trifluoromethyl)benzenesulfonamide], the IC50 on NDM-1 came out at 1.93 nM; on IMP-1 it was 3.82 nM; at VIM-1 (setting [4]) it was 0.247 nM. For the same compound, the “Escherichia coli MITC95” value in assay [1] came out at 0.25 µM. The “Klebsiella pneumoniae MITC95” value in assay [2] is 0.8542 µM. For the same compound, in assay [3], the “Serratia marcescens MITC95” value is 0.724 µM.

Turning to `NS(=O)(=O)c1c(C(F)(F)F)ccc([C@H]2CC[C@@H](C3CCNCC3)CC2)c1-c1nnn[nH]1` [Example 831, 3-((1s,4s)-4-(piperidin-4-yl)cyclohexyl)-2-(1H-tetrazol-5-yl)-6-(trifluoromethyl)benzenesulfonamide], the figures for the IC50 at NDM-1, on IMP-1 and at VIM-1 (setting [4]) were 0.817 nM, 0.892 nM and 2.84 nM, respectively. The “Escherichia coli MITC95” value in assay [1] amounted to 2.344 µM. Further, the “Klebsiella pneumoniae MITC95” value in assay [2] amounted to 50 µM. For the same compound, the “Serratia marcescens MITC95” value in assay [3] amounted to 3.125 µM.

For the compound `NS(=O)(=O)c1c(C(F)(F)F)ccc([C@H]2CC[C@H](C3CCNCC3)CC2)c1-c1nnn[nH]1` [Example 832, 3-((1r,4r)-4-(piperidin-4-yl)cyclohexyl)-2-(1H-tetrazol-5-yl)-6-(trifluoromethyl)benzenesulfonamide], the values for the IC50 on NDM-1, at IMP-1 and on VIM-1 (setting [4]) were 0.501 nM, 1.46 nM and 0.212 nM, respectively. Besides, in assay [1], the “Escherichia coli MITC95” value was 1.563 µM. Moreover, in assay [2], the “Klebsiella pneumoniae MITC95” value was 4.688 µM. Moreover, in assay [3], the “Serratia marcescens MITC95” value came to 3.125 µM.

With `NS(=O)(=O)c1c(C(F)(F)F)ccc(C2CCC3(CCNCC3)CC2)c1-c1nnn[nH]1` [Example 833, 3-(3-azaspiro[5.5]undecan-9-yl)-2-(1H-tetrazol-5-yl)-6-(trifluoromethyl)benzenesulfonamide], the concentration for half-maximal inhibition (IC50) on NDM-1 came to 0.74 nM; at IMP-1, 4.31 nM; at VIM-1 (setting [4]) it was 3.33 nM. Further, the “Escherichia coli MITC95” value in assay [1] came to 1.563 µM. Moreover, in assay [2], the “Klebsiella pneumoniae MITC95” value stood at 12.5 µM. For the same compound, in assay [3], the “Serratia marcescens MITC95” value turned out to be 3.125 µM.

With `NC1(CN2CCC3(CCC(c4ccc(C(F)(F)F)c(S(N)(=O)=O)c4-c4nnn[nH]4)CC3)CC2)CC1` [Example 834, 3-[3-[(1-aminocyclopropyl)methyl]-3-azaspiro[5.5]undecan-9-yl]-2-(1H-tetrazol-5-yl)-6-(trifluoromethyl)benzenesulfonamide], the IC50 at NDM-1 was determined as 1.49 nM; at IMP-1, 5.45 nM; on VIM-1 (setting [4]), 13.3 nM. For the same compound, the “Escherichia coli MITC95” value in assay [1] stood at 6.25 µM. Moreover, the “Klebsiella pneumoniae MITC95” value in assay [2] was 50 µM. In addition, the “Serratia marcescens MITC95” value in assay [3] is 6.25 µM.

Consider `NS(=O)(=O)c1c(C(F)(F)F)ccc(C2CCN(C3CCNCC3)CC2)c1-c1nnn[nH]1` [Example 835, 3-[1-(4-piperidyl)-4-piperidyl]-2-(1H-tetrazol-5-yl)-6-(trifluoromethyl)benzenesulfonamide], for which the IC50 at NDM-1 amounted to 96 nM; on IMP-1, 232 nM; at VIM-1 (setting [4]) it was 190 nM. In addition, the “Escherichia coli MITC95” value in assay [1] is 3.125 µM. The “Klebsiella pneumoniae MITC95” value in assay [2] was 100 µM. Besides, in assay [3], the “Serratia marcescens MITC95” value came to 6.25 µM.

As for `NC1Cc2cccc(-c3ccc(C(F)(F)F)c(S(N)(=O)=O)c3-c3nnn[nH]3)c2C1` (stereo not drawn) [Example 836, 3-(2-aminoindan-4-yl)-2-(1H-tetrazol-5-yl)-6-(trifluoromethyl)benzenesulfonamide], the values for the IC50 at NDM-1, on IMP-1 and on VIM-1 (setting [4]) were 54.9 nM, 134 nM and 2.39 nM, respectively. In assay [1], the “Escherichia coli MITC95” value came to 2.344 µM. Besides, the “Klebsiella pneumoniae MITC95” value in assay [2] worked out at 1.563 µM. Moreover, the “Serratia marcescens MITC95” value in assay [3] was 4.688 µM.

In the case of `NC[C@H](N)C(=O)NC1CCC(c2ccc(C(F)(F)F)c(S(N)(=O)=O)c2-c2nnn[nH]2)CC1` (stereo partly drawn) [Example 837, (S)-2,3-diamino-N-((1r,4S)-4-(3-sulfamoyl-2-(1H-tetrazol-5-yl)-4-(trifluoromethyl)phenyl)cyclohexyl)propanamide], the IC50 turned out to be 8.68 nM at NDM-1, 21.2 nM on IMP-1 and 2.9 nM on VIM-1 (setting [4]). Moreover, the “Escherichia coli MITC95” value in assay [1] was 1.563 µM. In addition, the “Klebsiella pneumoniae MITC95” value in assay [2] came to 6.25 µM. The “Serratia marcescens MITC95” value in assay [3] turned out to be 0.5859 µM.

As for `NC1CCC(c2ccc(CCC3CCNCC3)c(S(N)(=O)=O)c2-c2nn[nH]n2)CC1` (stereo not drawn) [Example 838, 3-(4-aminocyclohexyl)-6-[2-(4-piperidyl)ethyl]-2-(2H-tetrazol-5-yl)benzenesulfonamide], the figures for the IC50 on NDM-1, at IMP-1 and at VIM-1 (setting [4]) were 68.3 nM, 1680 nM and 61.2 nM, respectively. In assay [1], the “Escherichia coli MITC95” value came out at 3.125 µM. Also, in assay [2], the “Klebsiella pneumoniae MITC95” value amounted to 6.25 µM. Further, the “Serratia marcescens MITC95” value in assay [3] was determined as 12.5 µM.

In the case of `NC1CCC(c2ccc(CC3CCNCC3)c(S(N)(=O)=O)c2-c2nn[nH]n2)CC1` (stereo not drawn) [Example 839, 3-(4-aminocyclohexyl)-6-(piperidin-4-ylmethyl)-2-(2H-tetrazol-5-yl)benzenesulfonamide], the figures for the IC50 at NDM-1, on IMP-1 and on VIM-1 (setting [4]) were 56.9 nM, 359 nM and 19.3 nM, respectively. For the same compound, in assay [1], the “Escherichia coli MITC95” value came out at 3.125 µM. Moreover, in assay [2], the “Klebsiella pneumoniae MITC95” value is 6.25 µM. Also, in assay [3], the “Serratia marcescens MITC95” value amounted to 6.25 µM.

As to `NS(=O)(=O)c1c(C(F)(F)F)ccc(-c2cccn3ncnc23)c1-c1nnn[nH]1` [Example 840, 3-([1,2,4]triazolo[1,5-a]pyridin-8-yl)-2-(1H-tetrazol-5-yl)-6-(trifluoromethyl)benzenesulfonamide], the IC50 at NDM-1 is 2.49 nM; at IMP-1, 14.1 nM; on VIM-1 (setting [4]), 0.46 nM. Besides, in assay [1], the “Escherichia coli MITC95” value was 3.125 µM. Besides, the “Klebsiella pneumoniae MITC95” value in assay [2] is 6.25 µM. In addition, the “Serratia marcescens MITC95” value in assay [3] came out at 12.5 µM.
